The results in this text go back to the OligoGym collection.

This data set addresses APOL1. The conditions noted are these: ASO.

“And” between values parts separate entries of the source, which are not always exact repeats. Equal entries are not always repeated. After the bases stand the sugars from the 5' end (letter, count) and the backbone: PS all phosphorothioate, else s phosphorothioate and o phosphodiester by linkage. Methylation of C is not given here. e = 2'-O-(2-methoxyethyl) (MOE); k = constrained ethyl (cEt); d = 2'-deoxy (DNA)

“GTTATGAAATTATTGG (sugars kkddddkekekkdddd, PS)” returned a target mRNA inhibition (A431, 2 µM) of 86%.
Consider “GTTCAAAAGCAGCATT (sugars kdddddkekekddddd, PS)”, for which, for the setting “A431, 2 µM”, the target mRNA inhibition worked out at 79%.
Under “A431, 2 µM”, “GTTCAAAAGCAGCATT (sugars kkkddddkdkdkdddd, PS)” came in with a target mRNA inhibition of 23%.
Where the note is “A431, 2 µM”, “GTTCAAAAGCAGCATT (sugars kkkddddkekeddddd, PS)” registered a target mRNA inhibition of 85%.
For “GTTCTAACTCTTGGGC (sugars k2 d4 e3 k2 d5, PS)”, the target mRNA inhibition reads like this: (A431, 0.0156 µM) 20%; (A431, 0.0625 µM) 35%; (A431, 0.25 µM) 65%; (A431, 1 µM) 85%; (A431, 2 µM) 91%.
With GTTCTAACTCTTGGGC (sugars k4 d9 k3, PS), the target mRNA inhibition reads like this: (A431, 0.0625 µM) 74%; (A431, 0.25 µM) 85%; (A431, 1 µM) 92%.
Sequence “GTTCTAACTCTTGGGC (sugars kkddddekekeddddd, PS)” had a target mRNA inhibition (A431, 2 µM) of 78%.
Consider “GTTCTAACTCTTGGGC (sugars kkddddkdkdkddddd, PS)”, for which the target mRNA inhibition reads like this: (A431, 0.0156 µM) 3%; (A431, 0.0625 µM) 28%; (A431, 0.25 µM) 59%; (A431, 1 µM) 75%; (A431, 2 µM) 90%.
“GTTCTAACTCTTGGGC (sugars kkddddkekekkdddd, PS)”: the target mRNA inhibition (A431, 2 µM) was 52%.
Turning to GTTGTCCAGAGCTTTA (sugars k4 d9 k3, PS), the target mRNA inhibition by setting is: (A431, 0.0625 µM) 56%; (A431, 0.25 µM) 72%; (A431, 1 µM) 79%.
The sequence “GTTTTGTAAGTGCAAC (sugars kdddddkekekddddd, PS)” came in with a target mRNA inhibition (A431, 2 µM) of 92%.
“GTTTTGTAAGTGCAAC (sugars kddddkekekeddddd, PS)” had a target mRNA inhibition (A431, 2 µM) of 73%.
The sequence “GTTTTGTAAGTGCAAC (sugars kkkddddkekekdddd, PS)” showed a target mRNA inhibition (A431, 2 µM) of 59%.
For GTTTTTACAATAGTGC (sugars k4 d9 k3, PS), the target mRNA inhibition amounted to 74% (A431, 0.0625 µM); 91% (A431, 0.25 µM); 96% (A431, 1 µM).
In the case of “TAAGTATTGCCAGCTA (sugars k3 d4 k3 e1 d5, PS)”, under “A431, 2 µM”, the target mRNA inhibition came to 65%.
Take TAATTCTATTAGAGGG (sugars k4 d9 k3, PS): the target mRNA inhibition was 17% (A431, 0.0625 µM); 45% (A431, 0.25 µM); 69% (A431, 1 µM).
The sequence “TAATTCTATTAGAGGG (sugars kkddddkekekddddd, PS)” gave a target mRNA inhibition (A431, 2 µM) of 34%.
As for TACCGGGTAAGAGCGA (sugars k4 d9 k3, PS), the target mRNA inhibition came to 32% (A431, 0.0625 µM); 64% (A431, 0.25 µM); 78% (A431, 1 µM).
The sequence “TATATTTGATCCTCAA (sugars kkddddkekekkdddd, PS)” returned a target mRNA inhibition (A431, 2 µM) of 77%.
“TATCAGATGGGTACTT (sugars k2 d4 e3 k2 d5, PS)” returned a target mRNA inhibition (A431, 2 µM) of 70%.
Turning to TATTGGTTCAAAAGCA (sugars k4 d9 k3, PS), the target mRNA inhibition stood at 29% (A431, 0.0625 µM); 67% (A431, 0.25 µM); 86% (A431, 1 µM).
As to “TATTTCTTGATGTGGT (sugars k2 d4 e3 k2 d5, PS)”, the target mRNA inhibition by setting is: (A431, 0.0156 µM) 37%; (A431, 0.0625 µM) 78%; (A431, 0.25 µM) 94%; (A431, 1 µM) 98%; (A431, 2 µM) 99%.
The like results for “TATTTCTTGATGTGGT (sugars kkdddddkekeddddd, PS)” were, in that order, 10%, 59%, 87%, 96% and 99%.
In the case of “TATTTCTTGATGTGGT (sugars kkddddkekekkdddd, PS)”, the target mRNA inhibition (A431, 2 µM) stood at 71%.
For the sequence TCAATTTGTCAAGGCT (sugars k4 d9 k3, PS), the target mRNA inhibition is 46% and 59% (A431, 0.0625 µM); 78% and 83% (A431, 0.25 µM); 90% and 91% (A431, 1 µM).
Where the note is “A431, 2 µM”, “TCAGATGGGTACTTCT (sugars k3 d4 k3 e1 d5, PS)” showed a target mRNA inhibition of 82%.
Consider “TCAGATGGGTACTTCT (sugars kkdddddkekeddddd, PS)”, for which the target mRNA inhibition (A431, 2 µM) was found to be 89%.
Turning to TCAGGTGACTACATTT (sugars k4 d9 k3, PS), the target mRNA inhibition was found to be 47% (A431, 0.0625 µM); 67% (A431, 0.25 µM); 84% (A431, 1 µM).
TCATTTGCTAGGTGCC (sugars k4 d9 k3, PS): the target mRNA inhibition is, setting by setting: (A431, 0.0625 µM) 43%; (A431, 0.25 µM) 72%; (A431, 1 µM) 85%.
In the case of “TCTATTAGAGGGCTAG (sugars k2 d4 e4 k2 d4, PS)”, the target mRNA inhibition (A431, 2 µM) is 44%.
“TCTATTAGAGGGCTAG (sugars kkkddddkekekdddd, PS)” gave a target mRNA inhibition (A431, 2 µM) of 23%.
Under “A431, 2 µM”, “TCTCATGGTACAGGAG (sugars kddddkekekeddddd, PS)” returned a target mRNA inhibition of 55%.
In the case of TGAAACATTCCTGGAC (sugars k4 d9 k3, PS), the target mRNA inhibition is 28% and 8% (A431, 0.0625 µM); 55% and 32% (A431, 0.25 µM); 80% and 65% (A431, 1 µM).
For the setting “A431, 2 µM”, “TGAAGATTGGCTCTGG (sugars k2 d4 e3 k2 d5, PS)” came in with a target mRNA inhibition of 82%.
In the case of “TGAAGATTGGCTCTGG (sugars kkkddddkekeddddd, PS)”, where the note is “A431, 2 µM”, the target mRNA inhibition was 54%.
For “TGAGTATTGTTTTTGT (sugars k2 d4 e3 k2 d5, PS)”, under “A431, 2 µM”, the target mRNA inhibition came out at 87%.
TGGATGGAAGGAACCT (sugars k4 d9 k3, PS) displayed a target mRNA inhibition (A431, 0.0625 µM) of 3%; a target mRNA inhibition (A431, 0.25 µM) of 44%; a target mRNA inhibition (A431, 1 µM) of 36%.
For the setting “A431, 2 µM”, “TGGGAATTATGGAATT (sugars kkkddddkekekdddd, PS)” gave a target mRNA inhibition of 56%.
Turning to TGTAAGTGCAACCAAT (sugars k4 d9 k3, PS), the target mRNA inhibition runs as follows: (A431, 0.0625 µM) 19%; (A431, 0.25 µM) 46%; (A431, 1 µM) 78%.
Sequence “TGTATTTCTTGATGTG (sugars k3 d4 k3 e1 d5, PS)” had a target mRNA inhibition (A431, 2 µM) of 87%.
TGTGATGTGGGACTTG (sugars k4 d9 k3, PS): the target mRNA inhibition is, setting by setting: (A431, 0.0625 µM) 32%; (A431, 0.25 µM) 70%; (A431, 1 µM) 84%.
Consider “TGTTATATTTGATCCT (sugars k3 d4 k3 e1 d5, PS)”, for which the target mRNA inhibition (A431, 2 µM) is 89%.
Same read-out and setting: for “TGTTATATTTGATCCT (sugars kdddddkekekddddd, PS)” the value was 79%; for “TGTTATATTTGATCCT (sugars kkddddkekekddddd, PS)”, 81%; for “TGTTATATTTGATCCT (sugars kkkddddkekekdddd, PS)”, 59%.
For TGTTATCCTCAAGCTC (sugars k4 d9 k3, PS), where the note is “A431, 0.0625 µM”, the target mRNA inhibition was 37% and 17%.
Turning to “TGTTCTAACTCTTGGG (sugars k2 d4 e3 k2 d5, PS)”, the target mRNA inhibition came out at 24% (A431, 0.0156 µM); 61% (A431, 0.0625 µM); 84% (A431, 0.25 µM); 93% (A431, 1 µM); 97% (A431, 2 µM).
For the setting “A431, 2 µM”, “TGTTCTAACTCTTGGG (sugars k3 d4 k3 e1 d5, PS)” returned a target mRNA inhibition of 89%.
